According to paper PMC7486443, “Generation of Phenothiazine with Potent Anti-TLK1 Activity for Prostate Cancer Therapy” (iScience, 2020):

Tests used:
Assay in all cases: biochemical
Set-up in all cases: DiscoverX KINOMEscan scanMAX competition binding panel, single concentration, percent of control; remaining binding: dose or concentration left out as unconfirmed
Conditions in all cases: KINOMEscan binding, percent of control; read-out: Table S4_SCANMAX REPORT - related to Fig. 1 / Percent Control
CDC2L1 = target: T1, CDC2L1 (Homo sapiens, UniProt P21127)
T1 construct: gene CDK11B

CDC2L2 = target: T2, CDC2L2 (Homo sapiens, UniProt Q9UQ88)
T2 construct: gene CDK11A
T2 sequence (Q9UQ88 whole entry): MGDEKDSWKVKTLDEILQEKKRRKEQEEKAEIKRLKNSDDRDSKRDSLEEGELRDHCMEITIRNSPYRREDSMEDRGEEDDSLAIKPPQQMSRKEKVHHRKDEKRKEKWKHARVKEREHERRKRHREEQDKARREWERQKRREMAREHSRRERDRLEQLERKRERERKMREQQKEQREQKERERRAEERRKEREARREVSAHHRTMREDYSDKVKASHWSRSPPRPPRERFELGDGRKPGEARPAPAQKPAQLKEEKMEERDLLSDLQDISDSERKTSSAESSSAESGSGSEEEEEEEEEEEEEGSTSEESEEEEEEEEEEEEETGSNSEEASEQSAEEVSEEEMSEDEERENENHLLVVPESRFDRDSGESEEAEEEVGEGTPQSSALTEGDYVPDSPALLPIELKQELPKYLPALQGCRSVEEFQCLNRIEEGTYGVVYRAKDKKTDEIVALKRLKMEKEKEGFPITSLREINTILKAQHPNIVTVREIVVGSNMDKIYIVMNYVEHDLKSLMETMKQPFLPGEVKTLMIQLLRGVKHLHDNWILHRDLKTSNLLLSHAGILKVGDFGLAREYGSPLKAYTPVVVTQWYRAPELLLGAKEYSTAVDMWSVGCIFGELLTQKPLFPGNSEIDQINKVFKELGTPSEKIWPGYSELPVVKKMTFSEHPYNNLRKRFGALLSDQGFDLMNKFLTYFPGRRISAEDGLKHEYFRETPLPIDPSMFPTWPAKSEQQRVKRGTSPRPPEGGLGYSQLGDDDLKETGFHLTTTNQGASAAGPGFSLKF

DYRK1A = DYRK1A (Homo sapiens, UniProt Q13627)
EGFR(L861Q) = EGFR(L861Q) (Homo sapiens, UniProt P00533, L861Q)
EPHA3 = EPHA3 (Homo sapiens, UniProt P29320)
EPHB4 = EPHB4 (Homo sapiens, UniProt P54760)
ERK1 = target: T3, ERK1 (Homo sapiens, UniProt P27361)
T3 construct: gene MAPK3
T3 sequence (P27361 whole entry): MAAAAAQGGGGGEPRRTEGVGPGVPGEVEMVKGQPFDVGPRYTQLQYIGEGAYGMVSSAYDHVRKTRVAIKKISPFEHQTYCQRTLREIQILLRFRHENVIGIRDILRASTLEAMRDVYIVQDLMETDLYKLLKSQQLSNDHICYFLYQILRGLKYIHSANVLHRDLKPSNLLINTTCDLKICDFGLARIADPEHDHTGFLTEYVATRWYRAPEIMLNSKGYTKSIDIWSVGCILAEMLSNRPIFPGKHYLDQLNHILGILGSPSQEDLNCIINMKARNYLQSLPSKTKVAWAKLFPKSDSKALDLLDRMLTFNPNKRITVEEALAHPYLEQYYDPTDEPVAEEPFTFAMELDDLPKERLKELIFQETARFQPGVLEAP

ERK2 = target: T4, ERK2 (Homo sapiens, UniProt P28482)
T4 construct: gene MAPK1
T4 sequence (P28482 whole entry): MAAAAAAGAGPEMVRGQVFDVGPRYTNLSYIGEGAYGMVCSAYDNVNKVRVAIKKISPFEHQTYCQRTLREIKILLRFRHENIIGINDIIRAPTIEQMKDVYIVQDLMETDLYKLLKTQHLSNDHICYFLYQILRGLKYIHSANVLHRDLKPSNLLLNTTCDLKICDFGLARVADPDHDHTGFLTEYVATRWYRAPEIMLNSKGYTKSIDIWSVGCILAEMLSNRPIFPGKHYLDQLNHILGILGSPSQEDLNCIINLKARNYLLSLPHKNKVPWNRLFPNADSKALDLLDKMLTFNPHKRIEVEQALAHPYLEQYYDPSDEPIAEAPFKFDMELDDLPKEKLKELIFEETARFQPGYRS

MYLK = MYLK (Homo sapiens, UniProt Q15746)
PAK3 = PAK3 (Homo sapiens, UniProt O75914)
PIP5K1C = PIP5K1C (Homo sapiens, UniProt O60331)
Sequence of PIP5K1C (O60331 whole entry): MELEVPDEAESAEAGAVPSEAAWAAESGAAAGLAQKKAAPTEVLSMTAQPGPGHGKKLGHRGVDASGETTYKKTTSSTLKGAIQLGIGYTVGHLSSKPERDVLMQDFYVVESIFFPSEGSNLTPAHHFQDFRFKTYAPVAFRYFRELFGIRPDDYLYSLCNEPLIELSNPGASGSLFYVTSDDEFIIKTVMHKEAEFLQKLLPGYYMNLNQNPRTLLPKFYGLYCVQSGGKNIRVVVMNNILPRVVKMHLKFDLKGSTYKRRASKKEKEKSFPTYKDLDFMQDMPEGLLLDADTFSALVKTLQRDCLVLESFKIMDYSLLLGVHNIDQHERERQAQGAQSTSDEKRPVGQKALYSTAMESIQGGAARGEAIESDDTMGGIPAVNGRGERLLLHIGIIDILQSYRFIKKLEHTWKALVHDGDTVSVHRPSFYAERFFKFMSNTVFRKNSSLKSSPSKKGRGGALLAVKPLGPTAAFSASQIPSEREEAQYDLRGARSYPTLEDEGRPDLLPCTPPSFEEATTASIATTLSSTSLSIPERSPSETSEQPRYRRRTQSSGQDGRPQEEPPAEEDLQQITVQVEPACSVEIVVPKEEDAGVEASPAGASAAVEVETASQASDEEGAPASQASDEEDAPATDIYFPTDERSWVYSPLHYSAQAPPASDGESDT

PRKCD = PRKCD (Homo sapiens, UniProt Q05655)
Sequence of PRKCD (Q05655 whole entry): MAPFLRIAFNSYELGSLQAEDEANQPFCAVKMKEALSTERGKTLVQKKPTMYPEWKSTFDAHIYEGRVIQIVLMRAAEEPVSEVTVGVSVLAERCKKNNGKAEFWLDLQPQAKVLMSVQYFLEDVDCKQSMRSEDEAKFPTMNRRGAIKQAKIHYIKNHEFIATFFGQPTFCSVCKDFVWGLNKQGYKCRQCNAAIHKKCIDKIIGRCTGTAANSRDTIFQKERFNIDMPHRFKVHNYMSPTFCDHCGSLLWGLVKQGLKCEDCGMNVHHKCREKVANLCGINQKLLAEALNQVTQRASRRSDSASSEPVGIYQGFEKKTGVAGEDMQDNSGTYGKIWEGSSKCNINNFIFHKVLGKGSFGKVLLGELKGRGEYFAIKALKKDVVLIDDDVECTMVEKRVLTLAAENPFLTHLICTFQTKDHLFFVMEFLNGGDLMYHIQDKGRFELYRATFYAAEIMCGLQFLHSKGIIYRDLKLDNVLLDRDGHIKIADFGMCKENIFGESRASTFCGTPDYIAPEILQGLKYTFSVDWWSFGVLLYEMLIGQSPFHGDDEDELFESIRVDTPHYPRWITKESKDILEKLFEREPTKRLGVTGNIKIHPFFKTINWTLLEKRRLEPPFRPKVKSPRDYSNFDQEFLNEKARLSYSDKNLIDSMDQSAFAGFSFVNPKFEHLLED

PRKCI = PRKCI (Homo sapiens, UniProt P41743)
[1] = target: T5, RSK3(Kin.Dom.1-N-terminal) (Homo sapiens, UniProt Q15349)
T5 construct: gene RPS6KA2; Kin.Dom.1-N-terminal
T5 sequence (Q15349 whole entry): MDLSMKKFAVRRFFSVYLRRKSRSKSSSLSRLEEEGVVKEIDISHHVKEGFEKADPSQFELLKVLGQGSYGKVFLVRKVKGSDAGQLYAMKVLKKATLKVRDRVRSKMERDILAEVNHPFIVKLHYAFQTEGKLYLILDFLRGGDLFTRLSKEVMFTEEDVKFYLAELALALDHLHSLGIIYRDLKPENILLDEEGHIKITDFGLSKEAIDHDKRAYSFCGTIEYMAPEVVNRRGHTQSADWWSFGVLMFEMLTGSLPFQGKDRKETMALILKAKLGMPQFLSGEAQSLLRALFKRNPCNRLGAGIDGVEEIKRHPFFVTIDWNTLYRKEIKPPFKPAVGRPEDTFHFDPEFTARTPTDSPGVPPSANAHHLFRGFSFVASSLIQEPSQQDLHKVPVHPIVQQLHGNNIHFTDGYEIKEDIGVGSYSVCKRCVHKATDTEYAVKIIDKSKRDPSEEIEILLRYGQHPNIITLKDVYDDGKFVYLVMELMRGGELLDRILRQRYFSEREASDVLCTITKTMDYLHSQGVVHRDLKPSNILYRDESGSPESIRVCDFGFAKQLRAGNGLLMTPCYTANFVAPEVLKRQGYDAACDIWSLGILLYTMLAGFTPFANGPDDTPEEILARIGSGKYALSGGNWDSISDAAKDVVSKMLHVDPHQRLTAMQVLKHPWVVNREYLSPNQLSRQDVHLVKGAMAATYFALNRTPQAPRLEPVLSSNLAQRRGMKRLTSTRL

SGK2 = SGK2 (Homo sapiens, UniProt Q9HBY8)
Sequence of SGK2 (Q9HBY8 whole entry): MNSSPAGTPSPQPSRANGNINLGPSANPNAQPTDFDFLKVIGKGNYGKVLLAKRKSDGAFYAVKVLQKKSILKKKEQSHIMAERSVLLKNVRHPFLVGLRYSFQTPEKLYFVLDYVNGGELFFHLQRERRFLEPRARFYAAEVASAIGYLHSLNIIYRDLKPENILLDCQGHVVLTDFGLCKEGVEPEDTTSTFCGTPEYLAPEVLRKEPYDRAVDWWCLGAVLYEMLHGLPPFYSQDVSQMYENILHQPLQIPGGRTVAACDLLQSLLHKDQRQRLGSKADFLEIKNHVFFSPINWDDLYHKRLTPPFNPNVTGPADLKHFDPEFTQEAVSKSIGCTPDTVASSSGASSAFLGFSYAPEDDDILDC

SIK2 = SIK2 (Homo sapiens, UniProt Q9H0K1)
STK39 = STK39 (Homo sapiens, UniProt Q9UEW8)
TGFBR1 = TGFBR1 (Homo sapiens, UniProt P36897)
Sequence of TGFBR1 (P36897 whole entry): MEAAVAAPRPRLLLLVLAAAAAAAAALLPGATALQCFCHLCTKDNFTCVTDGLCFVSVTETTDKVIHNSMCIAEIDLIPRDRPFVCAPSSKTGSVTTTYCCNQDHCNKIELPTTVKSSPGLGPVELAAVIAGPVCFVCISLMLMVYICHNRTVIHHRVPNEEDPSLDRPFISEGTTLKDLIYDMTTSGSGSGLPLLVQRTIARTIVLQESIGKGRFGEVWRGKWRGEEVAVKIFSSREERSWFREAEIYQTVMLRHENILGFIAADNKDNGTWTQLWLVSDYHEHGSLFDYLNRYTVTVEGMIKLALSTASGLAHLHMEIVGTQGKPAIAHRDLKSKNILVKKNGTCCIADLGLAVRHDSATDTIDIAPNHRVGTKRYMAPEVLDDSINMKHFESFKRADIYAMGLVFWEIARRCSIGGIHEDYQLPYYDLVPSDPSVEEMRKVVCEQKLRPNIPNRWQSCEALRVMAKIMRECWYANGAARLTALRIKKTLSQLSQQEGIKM

c1ccc2c(c1)Sc1ccccc1N2CCN1CCOCC1 [J54]
remaining binding (CDC2L1): 100% | remaining binding (CDC2L2): 100% | remaining binding (DYRK1A): 80% | remaining binding (EGFR(L861Q)): 94% | remaining binding (EPHA3): 99% | remaining binding (EPHB4): 100% | remaining binding (ERK1): 100% | remaining binding (ERK2): 97% | remaining binding (MYLK): 97% | remaining binding (PAK3): 100% | remaining binding (PIP5K1C): 100% | remaining binding (PRKCD): 100% | remaining binding (PRKCI): 98% | remaining binding [1]: 100% | remaining binding (SGK2): 90% | remaining binding (SIK2): 97% | remaining binding (STK39): 100% | remaining binding (TGFBR1): 100%
